From patent US20200253979A1, “THERAPEUTIC METHODS RELATING TO HSP90 INHIBITORS” (AI Therapeutics, Inc., priority 2017, published 2020)

Assays:
[1] = test system: MV-4-11 cell line (AML FLT3-ITD) xenograft; test: Subcutaneous MV-4-11 xenograft study; settings: oral, 200 mg/kg QD×2 days then 150 mg/kg QD×15 days
Experimental: Each mouse was inoculated subcutaneously in the right flank with 5×10^6 tumor cells in 0.1 ml PBS/Matrigel (1:1). When the mean tumor volume reached 91 mm^3 in size, mice were randomized into 2 groups of 10. […] Tumor measurements (caliper) were taken on the indicated days. […] Student t-test was used to evaluate the statistical significance of the difference between these groups P<0.0001.

[2] = test system: BaF3 cells harboring FLT3-ITD F691L; test: CellTiter-Glo cell viability; assay type: cell-based, murine; settings: Mus musculus; BaF3 FLT3-ITD-F691L, 72 hours
Experimental: EC50 values were calculated using equation 1 (as described above).

[3] = test system: MOLM-13 FLT3-ITD AML cell line; test: Systemic survival xenograft study, MPC-0767 with venetoclax; settings: MPC-0767 100-60 mg/kg QD×24, vs vehicle
Experimental: A systemic survival xenograft study was performed using the MOLM-13 FLT3-ITD harboring AML cell line.
Before tumor cell inoculation, NOD/SCID mice were pre-treated for 2 days with a daily intraperitoneal injection of 100 mg/kg cyclophosphamide to facilitate engraftment of the human MOLM-13 tumor cells. After the injection of cyclophosphamide, the animals were allowed to recover for 24 hours prior to inoculation with human MOLM-13 tumor cells. Each mouse was then inoculated with 1×10^7 MOLM-13 cells in 100 μL PBS via intravenous tail vein injection. Mice were next randomized into 4 groups of 6. […] Viability and body weight loss were monitored daily.

[4] = test system: NOMO1 (NOMO-1) cells; test: CellTiter-Glo cell viability (single agent and combination); assay type: cell-based; settings: NOMO1, 72 h
[5] = test system: phospho-S6 in MOLM-13 cells; test: Phospho-S6 by flow cytometry; assay type: cell-based, human; settings: 24 hours
Experimental: To determine whether MPC-0767 can promote the degradation of FLT3-ITD and abolish downstream signaling, MV-4-11 and MOLM-13 cells were treated with vehicle or MPC-0767 (1 μM) for 24 hours. Cells were harvested for flow cytometry to assess cell surface FLT3 protein abundance. In addition, the measurement of a key phosphorylation site of S6 (phospho-S6) was used as a marker for oncogenic FLT3-ITD signaling (Zimmerman et al., Blood. 2013 122(22): 3607-3615). Indeed, in both MV-4-11 and MOLM-13 cells treated with MPC-0767 there was a >65% reduction in cell surface FLT3 (FIGS. 10A and 10B, respectively) and >70% reduction in phospho-S6 (FIGS. 10C and 10D, respectively).
We next explored whether the synergistic activity of MPC-0767 and ATO was due to a more complete abrogation of FLT3-ITD oncogenic signaling. […] After this time cells were harvested for the assessment of cell surface FLT3 expression by flow cytometry. To additionally measure the effects of abrogating FLT3, we assessed phospho-ERK (pERK) and phospho-S6 (pS6), as these are two known downstream effectors.

[6] = test system: OCIAML3 cells; test: CellTiter-Glo cell viability; assay type: cell-based; settings: OCIAML3, 72 h
[7] = test system: PD-1+ Jurkat reporter cells with THP-1 AML cells; test: Jurkat NFAT-luciferase reporter T cell activation with THP-1 cells; assay type: cell-based; settings: THP-1 treated overnight with IFNγ and MPC-0767 1 μM or 2 uM
Source text: The addition of antibodies that block the PD-1/PD-L1 pathway stimulate an increased T cell response in vitro, in pre-clinical animal models, and in cancer patients. This can lead to tumor regressions or tumor clearance in patients. To examine MPC-0767 effects on PD-L1 and T cell activation, we used a model system in which PD-1+ Jurkat T cells express luciferase under the control of the NFAT promoter (Promega, hereafter referred to Jurkat reporter cells). When T cells are stimulated through the T cell receptor (TCR), activation of the NFAT pathway drives expression of luciferase.
We next determined whether MPC-0767 reduction of PD-L1 could increase T cell stimulation similar to anti-PD-L1 blocking antibodies. THP-1 cells were treated overnight with IFNγ in the presence or absence of MPC-0767 (1 μM or 2 uM). THP-1 cells were washed and a portion saved for flow cytometry analysis of PD-L1 expression. The remaining cells were incubated with Jurkat reporter cells and anti-CD3 (10 ng/ml) for 6 hours.

[8] = test system: MOLM-13-LUC cells; test: CellTiter-Glo cell viability; assay type: cell-based; settings: Homo sapiens, 72 hours
Source text: In the clinic, tyrosine kinase inhibitors that target FLT3 initially show positive responses, but patients inevitably relapse due to the development of drug-resistance through various mechanisms, as discussed above.

[9] = test system: ML2 cells; test: CellTiter-Glo cell viability (single agent and combination)
Experimental: To determine whether MPC-0767 is efficacious against non-FLT3-ITD AML cells, we tested a panel of FLT3-wild type (FLT3-WT) AML cell lines and primary AML blasts for sensitivity to MPC-0767. Cells were treated with MPC-0767 for 72 hours before determining cell viability using the CellTiter-Glo® assay. […] To test whether the combination of MPC-0767 was synergistic with ATO, we tested a panel of AML cell lines. The cell lines include those harboring FLT3-ITD (MOLM-13, MOLM-14 and MV-4-11) or FLT3 WT (ME-1, THP-1, OCI-AML-2, HL60, NOMO-1, TUR and ML-2).

[10] = test system: T-cell populations within MC38 tumors; test: Effector/regulatory T-cell ratio in MC38 tumors; assay type: in vivo, mouse; settings: 150 mg/kg QD×7
Experimental: To test if MPC-0767 may induce an anti-tumor immune response in addition to direct cytotoxic activity, down regulation of PD-Ll and the effector/regulatory T-cell ratio was measured in the same MC38 syngeneic model. On day 21, when the average tumor volume was 372 mm^3 in size, a second group of mice (n=6) was treated with 150 mg/kg MPC-0767 QD×7. One day post the last dose (day 28 post inoculation) tumors were harvested from the vehicle and 150 mg/kg MPC-0767 QD×7 group. Tumor infiltrating leukocytes (CD45^+, CD3^−) within the dissociated tumors were analyzed for PD-L1 expression by flow cytometry.

[11] = test system: MOLM-13 FLT3-ITD AML cell line; test: Systemic survival xenograft study, MPC-0767 single agent; settings: vs vehicle
Experimental: Statistical significance was calculated using Log Rank (Mantel-Cox) test.
Before tumor cell inoculation, NOD/SCID mice were pre-treated for 2 days with a daily intraperitoneal injection of 100 mg/kg cyclophosphamide to facilitate engraftment of the human MOLM-13 tumor cells. After the injection of cyclophosphamide, the animals were allowed to recover for 24 hours prior to inoculation with human MOLM-13 tumor cells. Each mouse was then inoculated with 1×10^7 MOLM-13 cells in 100 μL PBS via intravenous tail vein injection. Mice were next randomized into 3 groups of 6. […] Viability and body weight loss were monitored daily.

[12] = test system: OCI-AML2 AML cell line; test: In vitro T-cell-mediated killing assay (active caspase-3); assay type: cell-based; settings: MPC-0767 2 μM overnight, then pp65 enriched CD8+ T cells 4 hours
Experimental: The ability of MPC-0767 to increase T cell killing was determined in an in vitro T-cell-mediated killing assay. The OCI-AML2 AML cell line was labeled with the cell staining dye CFSE and treated overnight with MPC-0767 (2 μM) and human cytomegalovirus pp65495-503 peptide. […] After 4 hours of co-culture, cells were harvested, fixed, permeabilized, and stained for the active form of caspase-3 as a direct read-out of apoptotic cell death.
The CI is a quantitative measure used to determine whether the combined effect of a drug pair is synergistic, additive, or antagonistic. The CI is calculated as CI=(E1+E2)/E12, where E12 is a normalized biological response (e.g., % Caspase-3+ cells) for the combination of Drug A and Drug B, and E1 and E2 are the response measured for each single drug treatment, respectively. CI values less than 1 indicate synergy, with the magnitude of the effect indicated by how much less than 1 the synergy score is. A more detailed mathematical treatment of this relationship is described in Shin et al. 2018.

[13] = test system: TUR cells; test: CellTiter-Glo cell viability (single agent and combination); assay type: cell-based; settings: 72 h

How did the “effect on body weight” value [1] turn out when C[C@H](N)C(=O)O[C@@H](C)C(=O)N1CCC(CCn2c(Sc3cc4c(cc3Br)OCO4)nc3c(N)ncnc32)CC1 [MPC-0767] was run?
The value was “without significant effects on body weight”.

What about the tumor regression [1] of the same molecule?
Its tumor regression is 84%.

What about the “complete tumor regression (animals)” value ([1]; n=10) of the same molecule?
The value was 5/10 and Five.

What about the EC50 [2] of the same molecule?
Its EC50 is 391 nM.

And the “increase in median survival” value [3]?
The value was 3.5 days.

What about the EC50 ([4]; Homo sapiens, NOMO-1) of the same molecule?
Its EC50 is 1450 nM.

What about the “MPC-0767 Sensitivity” value [4] of the same molecule?
Its value is “Resistant (EC50 values above 1 μM considered resistant)”.

And the “reduction in phospho-S6” value ([5]; MOLM-13, 1 μM)?
Its value is greater than 70%.

What about the pS6 level ([5]; MOLM-13, MPC-0767 800 nM, ATO 625 nM or combination) of the same molecule?
Its pS6 level is “reduced”.

What about the EC50 ([6]; Homo sapiens, OCI-AML-3) of the same molecule?
Its EC50 is 1810 nM.

What about the “MPC-0767 Sensitivity” value [6] of the same molecule?
The value was “Resistant (EC50 values above 1 μM considered resistant)”.

What about the “inhibition of T cell activation” value [7] of the same molecule?
Its value is “dose-dependently reduce inhibition of T cell activation”.

And the EC50 [8]?
Its EC50 is 496 nM.

And the EC50 ([9]; Homo sapiens, ML-2, 72 h)?
Its EC50 is 1030 nM.

And the “MPC-0767 Sensitivity” value ([9]; ML2, 72 h)?
The value was “Resistant (EC50 values above 1 μM considered resistant)”.

What about the “CD4:TREG ratio” value [10] of the same molecule?
The value was “significant increase”.

What about the “CD8:TREG ratio” value [10] of the same molecule?
Its value is “significant increase”.

What about the “increase in median survival” value ([11]; 75 mg/kg once a day) of the same molecule?
Its value is 1.5 days.

What about the “increase in median survival” value ([11]; 150 mg/kg once a day) of the same molecule?
Its value is 10 days.

What about the “Combination Index (CI) for apoptotic (active caspase-3+) cells” value [12] of the same molecule?
Its value is 0.53.

And the EC50 [13]?
The EC50 was 550 nM.

And the “MPC-0767 Sensitivity” value [13]?
Its value is “Sensitive (cell lines having EC50 values below 1 μM were considered to be sensitive)”.
